# Measurements as given in patent publication US20250051357A1, “SOLID FORMS OF A GPR119 AGONIST AND PROCESSES FOR THE PREPARATION THEREOF” (MANKIND PHARMA LTD., priority 2023, published 2025).
# Several values for one entry are separate records, joined by “and”; a condition that tells them apart may be missing. Identical values can stand only once.
# Test: Particle size analysis, Malvern particle size analyzer (Mastersizer 3000)
# Format: physicochemical
# Conditions: particle size distribution d90 of the isolated batch; dispersant water, Tween-80 paste, Mie model
# Method: Particle size analysis was performed using a Malvern particle size analyzer. (Mastersizer 3000, Malvern Instrument Ltd).
# Weigh accurately 100 mg of sample in 100 ml beaker. Add 3 drops of Tween-80 and 1 mL of water and make a paste with the help of glass rod. Then add 10 ml water and sonicate externally for 10 seconds with continued shaking.
row,SMILES,PSD (d90)
1,"CCc1cnc(N2CCC([C@H](C)Oc3nn4cc(-c5ccc(S(C)(=O)=O)cc5F)nc4s3)CC2)nc1 [Form M-1, 2-((S)-1-(1-(5-ethyl-pyrimidin-2-yl)piperidin-4-yl)ethoxy)-6-(2-fluoro-4-(methylsulfonyl)phenyl) imidazo[2,1-b][1,3,4]thiadiazole]",84.9 μm and 62.4 μm and 106 μm
2,"CCc1cnc(N2CCC([C@H](C)Oc3nn4cc(-c5ccc(S(C)(=O)=O)cc5F)nc4s3)CC2)nc1 [Form M-2, 2-((S)-1-(1-(5-ethyl-pyrimidin-2-yl)piperidin-4-yl)ethoxy)-6-(2-fluoro-4-(methylsulfonyl)phenyl) imidazo[2,1-b][1,3,4]thiadiazole]",99.8 μm
3,"CCc1cnc(N2CCC([C@H](C)Oc3nn4cc(-c5ccc(S(C)(=O)=O)cc5F)nc4s3)CC2)nc1 [Form M-4, 2-((S)-1-(1-(5-ethyl-pyrimidin-2-yl)piperidin-4-yl)ethoxy)-6-(2-fluoro-4-(methylsulfonyl)phenyl) imidazo[2,1-b][1,3,4]thiadiazole]",30-60 μm
4,"CCc1cnc(N2CCC([C@H](C)Oc3nn4cc(-c5ccc(S(C)(=O)=O)cc5F)nc4s3)CC2)nc1 [amorphous Form, 2-((S)-1-(1-(5-ethyl-pyrimidin-2-yl)piperidin-4-yl)ethoxy)-6-(2-fluoro-4-(methylsulfonyl)phenyl) imidazo[2,1-b][1,3,4]thiadiazole]",50-80 μm
